# Reference: patent publication US5849737A, “Compositions and methods for treating pain” (priority 1995, dated 1998)
# “Also recorded” adds a separate entry of the source. Where two headings read alike, the source gives them in different places.
# Key:
# [1] = tested on: neuromata; conditions: intravenous, whole animals; cited from earlier work
# [2] = tested on: acutely injured peripheral terminals; conditions: in vitro, protein-free system; cited from earlier work
# [3] = DA rats; some species of rats; cited from earlier work
# [4] = tested on: dorsal root ganglion; conditions: intravenous, whole animals; cited from earlier work
# [5] = tested on: peripheral nerve injury pain; conditions: lidocaine intravenous; mexiletine oral; cited from earlier work
# [6] = tested on: polysynaptic C-fiber evoked flexor responses; conditions: IV, 1-5 mg/kg, cited from earlier work
# [7] = tested on: motor function; experiment: Motor and behavioral effects after intrathecal administration
# Method: (§1) Male Harlan Sprague-Dawley rats were used (100-200 g). Rats were housed 2-3 to a cage with corn cob bedding and Purina rat chow and water ad libitum, in a standard facility with a 12 h/ 12 h day/night cycle. After surgical procedures involving chronic indwelling catheter insertion, animals were housed singly to prevent catheter damage.
# To induce neuropathy, rats were anesthetized with halothane/oxygen, and the left L5/L6 spinal nerves were exposed via a dorsal midline incision and ligated tightly with 6-0 silk suture according to the reported method [Kim S H et al., Pain 50:355-363 (1992)]. Rats were allowed to recover 5-7 days before further testing or surgeries.
# Intrathecal PE-10 catheters were implanted under halothane/oxygen anesthesia [Yaksh T L et al., Physiol Behav 17:1031-1036 (1976)]. The catheters were 9 cm in intrathecal length and terminated near the lumbar enlargement. The rostral 3 cm of catheter was tunneled under the skin to externalize between the ears. Rats with neurologic deficits were discarded.
# (§2) Monoethylglycinexylidide (MEGX) was dissolved in physiologic saline; 3-hydroxylidocaine (3-OH L) was dissolved in DMSO for intravenous administration.
# Intravenous drugs were delivered to awake, unrestrained rats by slow infusion using a syringe pump (Harvard apparatus 22). […] IT drug delivery was monitored by observing the advancement of a small air bubble down the tubing.
# [8] = tested on: tactile allodynia (paw withdrawal thresholds); conditions: IV systemic lidocaine, cited from earlier work
# [9] = tested on: tactile allodynia (paw withdrawal thresholds); experiment: Tactile allodynia (50% paw withdrawal threshold, von Frey) after intrathecal drug, L5/L6 spinal nerve ligated rats; format: in vivo, Male Harlan Sprague-Dawley rats; conditions: IT; lidocaine 500 μg, MEGX 500 μg, 3-OH L 58 μg
# Method: as §1
# Rats were allowed to recover 5-7 days before further testing or surgeries.
# The catheters were 9 cm in intrathecal length and terminated near the lumbar enlargement. The rostral 3 cm of catheter was tunneled under the skin to externalize between the ears. Rats with neurologic deficits were discarded.
# as §2
# Intravenous drugs were delivered to awake, unrestrained rats by slow infusion using a syringe pump (Harvard apparatus 22). Intrathecal drugs were delivered to awake, briefly restrained rats in a volume of 10 μl, followed by 10 μl of vehicle flush, using a calibrated tubing extension with a 30-gauge adapter fitting the implanted intrathecal catheter, attached to a geared Hamilton 100 μl glass syringe. IT drug delivery was monitored by observing the advancement of a small air bubble down the tubing.
# Rats were placed in a plastic cage with an open wire mesh bottom and allowed to accommodate for approximately fifteen minutes. […] In brief, von Frey hairs were sequentially applied using an up-and-down paradigm to the left mid-plantar hindpaw with sufficient force to cause slight filament buckling. Positive responses were noted if the paw was sharply withdrawn. […] Otherwise, PWT were calculated by noting the stimulus level at which the first change in behavior occurred, collecting four additional responses to the continued up-and-down oscillation of stimulus presentation around the response threshold, and interpolating the 50% response threshold. […] The following equation was used to compute %MPE: [formula]
# (§3) Plasma drug levels and PWT were correlated using linear regression. Serially measured PWT and %MPE were compared using repeated measures ANOVA.
# [10] = tested on: wide dynamic range neurons; conditions: IV, 3-4 mg/kg, rat; cited from earlier work
# [11] = tested on: tactile allodynia (paw withdrawal thresholds); conditions: after termination of motor block [Chaplan et al. (1993)]; cited from earlier work
# [12] = tested on: sural nerve evoked after discharges; conditions: IV, 1 mg/kg; cited from earlier work
# [13] = tested on: tactile allodynia (paw withdrawal thresholds); experiment: Mechanical allodynia after single i.p. dose in SD rats (left L5/L6 spinal nerve ligation); format: in vivo
# [14] = tested on: tactile allodynia (paw withdrawal thresholds); experiment: Mechanical allodynia after single i.p. dose in DA rats (left L5/L6 spinal nerve ligation); format: in vivo; conditions: for effect on tactile allodynia, DA rats: single i.p. dose, lidocaine 60 mg/kg, 3-OHL 15 mg/kg (P<0.002)
# [15] = tested on: centrally organized nociceptive flexion response; conditions: painful diabetic neuropathy; cited from earlier work
# [16] = tested on: painful diabetic neuropathy; conditions: cited from earlier work; for clinical effect in painful diabetic neuropathy: lidocaine intravenous, mexiletine oral
# [17] = Toxicity and plasma bupivacaine levels on intravenous infusion (GC assay); format: in vivo, Male Harlan Sprague-Dawley rats
# Description: For intravascular access, external jugular catheters were fashioned from PE-50 tubing and inserted into an external jugular vein under halothane/oxygen anesthesia. Arterial catheters were also fashioned from PE-50 with a small bouton 1 cm from the intravascular end for suture securing; they were inserted into a carotid artery, taking care to spare the surrounding nerves. All catheters were flushed with heparinized saline (10 U/ml) and tunneled subcutaneously to emerge at the posterior base of the neck, and capped when not in use.
# For bupivacaine assays, samples were obtained by withdrawing and discarding approximately 0.3 cc of blood from arterial cannulae, and then withdrawing samples of approximately 0.5 cc volume. These samples were centrifuged and the plasma supernatant was frozen at -20° C. until analysis. […]
# Bupivacaine was quantitated by capillary GC with nitrogen-phosphorus detection [Bjork M et al., Journal of Chromatography 533:229-234 (1990)]. […] Split injections (1.5:1) were performed with a Hewlett Packard 7673A automatic sampler, and the chromatograms were recorded and analyzed with H-P Chemstation (MSDOS) software. […]
# as §3
# [18] = tested on: tactile allodynia (paw withdrawal thresholds); experiment: Tactile allodynia (50% paw withdrawal threshold, von Frey) after intravenous drug, L5/L6 spinal nerve ligated rats; format: in vivo, Male Harlan Sprague-Dawley rats
# Description: For intravascular access, external jugular catheters were fashioned from PE-50 tubing and inserted into an external jugular vein under halothane/oxygen anesthesia. Arterial catheters were also fashioned from PE-50 with a small bouton 1 cm from the intravascular end for suture securing; they were inserted into a carotid artery, taking care to spare the surrounding nerves. All catheters were flushed with heparinized saline (10 U/ml) and tunneled subcutaneously to emerge at the posterior base of the neck, and capped when not in use. […] Rats were placed in a plastic cage with an open wire mesh bottom and allowed to accommodate for approximately fifteen minutes. A series of 8 von Frey filaments with logarithmically incremental stiffness (0.41, 0.70, 1.20, 2.00, 3.63, 5.50, 8.50, and 15.10 g) (Stoelting, Wood Dale, Ill.) was used to determine the 50% threshold for paw withdrawal to light mechanical stimuli (PWT). In brief, von Frey hairs were sequentially applied using an up-and-down paradigm to the left mid-plantar hindpaw with sufficient force to cause slight filament buckling. Positive responses were noted if the paw was sharply withdrawn. […] Otherwise, PWT were calculated by noting the stimulus level at which the first change in behavior occurred, collecting four additional responses to the continued up-and-down oscillation of stimulus presentation around the response threshold, and interpolating the 50% response threshold. […] The following equation was used to compute %MPE: [formula] Plasma drug levels and PWT were correlated using linear regression. Serially measured PWT and %MPE were compared using repeated measures ANOVA.
# [19] = tested on: neuropathic pain states; conditions: orally available lidocaine congeners; systemically administered local anesthetics; cited from earlier work
# [20] = tested on: P45ONF(human) (P-450 PB-1(rat)(IIIA4) enzyme); conditions: lidocaine metabolite formation; cited from earlier work
# [21] = tested on: trigeminal neuralgia; conditions: oral; cited from earlier work
smiles,measurement,setting,value
CCN(CC)CC(=O)Nc1c(C)cccc1C [lidocaine],ED50 for discharge suppression in neuromata,[1],6 mg/kg
same,"ED50, suppression of spontaneous activity",[2],5.7 µg/mL
same,3-hydroxylation / production of 3-OH L in rats,[3],lack of 3-hydroxylation in this strain
same,"ED50 for discharge suppression, dorsal root ganglion",[4],1 mg/kg
same,clinical effect in peripheral nerve injury pain,[5],"decreases in spontaneous pain, albeit of short duration"
same,conduction block at the peripheral terminal,[6],without evidence of conduction block at the peripheral terminal
same,effect on polysynaptic C-fiber evoked flexor responses,[6]; mustard oil and noxious heat,suppresses polysynaptic C-fiber evoked flexor responses to mustard oil and noxious heat
same,duration of motor dysfunction after IT delivery,[7]; 500 μg,approximately 10 minutes
same,motor effects after IT delivery,"[7]; lidocaine 500 μg, MEGX 500 μg, 3-OH L 58 μg",acute onset of hindquarter flaccidity
same,"effect on allodynia, intravenous route (earlier reports)",[8]; listed as Lidocaine,effective against allodynia by the intravenous
same,"effect on allodynia, intravenous route (earlier reports)",[8],long lasting effect by the IV route
same,effect on allodynia thresholds after IT delivery,[9],no effect on allodynia was seen
same,effect on wide dynamic range neuron activity,[10],selectively suppresses the increased wide dynamic range neuronal activity seen ipsilateral to chronic peripheral nerve injury; also recorded: suppresses noxious-evoked activity in wide dynamic range neurons in the rat
same,"anti-allodynic effect, IT / regional route (earlier report)",[11],no anti-allodynic effect after termination of motor block
same,suppression of sural nerve evoked after discharges,[12],suppression of polysynaptic (spinal cord) sural nerve evoked after discharges
same,"duration of tactile allodynia alleviation, SD rats","[13]; lidocaine 60 mg/kg i.p. single dose, N=6, strain difference P<0.002",more than 16 days
same,"effect on tactile allodynia, SD rats","[13]; single i.p. dose, lidocaine 60 mg/kg, 3-OHL 15 mg/kg (P<0.05)",sustained effect on tactile allodynia in SD rats; also recorded: persistent effects of lidocaine against allodynia
same,"time of transient effect, DA rats",[14]; lidocaine 60 mg/kg i.p.,30 min
same,"effect on tactile allodynia, DA rats",[14],not effective in this regard in DA rats; also recorded: no sustained effect of lidocaine in DA rats
same,"effect on tactile allodynia, DA rats",[14]; listed as Lidocaine,no sustained effect whatsoever
same,nociceptive flexion response,[15],suppression of the centrally organized nociceptive flexion response
same,thermal thresholds,"[16]; intravenous lidocaine, painful diabetic neuropathy",without alteration in thermal thresholds
same,clinical effect in painful diabetic neuropathy,[16],reduced pain scores for several days
CCCCN1CCCCC1C(=O)Nc1c(C)cccc1C (centres unmarked) [bupivacaine],toxicity on intravenous infusion,[17]; IV infusion,ataxia and lethargy; also recorded: Higher doses resulted in seizure
same,mean plasma level at higher doses that resulted in seizure,"[17]; IV, N=4, unit not given",7.4±0.7
same,effect of intravenous infusion on allodynia,"[18]; IV infusion, up to plasma concentrations which caused evident toxicity, 15 samples from 4 rats, P=0.11, linear regression",inactive against allodynia; also recorded: no effect on allodynia
same,correlation of plasma bupivacaine levels with %MPE (allodynia suppression),"[18]; IV, 4 rats, 15 samples, plasma levels up to toxic range (FIG. 1)",lack of correlation
Cc1cccc(C)c1OCC(C)N (centres unmarked) [mexiletine],clinical efficacy in neuropathic pain states,[19],far from universally effective
same,tolerability in neuropathic pain states,[19],"in many cases are poorly tolerated due to side effects, including some which may be life-threatening"
same,clinical effect in peripheral nerve injury pain,[5],analgesic effects
same,clinical effect in painful diabetic neuropathy,[16],analgesic effects
"CCNCC(=O)Nc1c(C)cccc1C [MEGX, Monoethylglycinexylidide]",enzyme producing the metabolite MEGX,[20],produced by the P45ONF(human) (P-450 PB-1(rat)(IIIA4) enzyme
same,effect on allodynia thresholds after IT delivery,[9],"not MEGX, suppressed allodynia; also recorded: no effect on PWT at this limiting dose"
same,allodynia suppression by IV MEGX,"[18]; 20 mg/kg, infused over 60 minutes",completely devoid of anti-allodynia activity by the intravenous route; also recorded: no effect whatsoever
same,PWT post infusion,"[18]; MEGX 20 mg/kg IV infused over 60 minutes, baseline 1.7±0.6 g",1.96 ± 0.4 g
Cc1cccc(C)c1NC(=O)C(C)N (centres unmarked) [tocainide],clinical efficacy in neuropathic pain states,[19],far from universally effective
same,tolerability in neuropathic pain states,[19],"in many cases are poorly tolerated due to side effects, including some which may be life-threatening"
same,clinical effect in trigeminal neuralgia,[21],analgesic effects
